Results reported in patent US20260007684A1, “AMIDE DERIVATIVES FOR INHIBITING NLRP3 AND USES THEREOF” (Ventus Therapeutics U.S., Inc., priority 2023, published 2026).

target: human NLRP3 (Homo sapiens (Human), UniProt Q96P20); experiment: Scintillation Proximity (SPA) NLRP3 Assay: displacement of 3H-MCC950; type: binding; settings: SPA IC50, displacement of 3H-MCC950
Sequence (Q96P20 whole entry): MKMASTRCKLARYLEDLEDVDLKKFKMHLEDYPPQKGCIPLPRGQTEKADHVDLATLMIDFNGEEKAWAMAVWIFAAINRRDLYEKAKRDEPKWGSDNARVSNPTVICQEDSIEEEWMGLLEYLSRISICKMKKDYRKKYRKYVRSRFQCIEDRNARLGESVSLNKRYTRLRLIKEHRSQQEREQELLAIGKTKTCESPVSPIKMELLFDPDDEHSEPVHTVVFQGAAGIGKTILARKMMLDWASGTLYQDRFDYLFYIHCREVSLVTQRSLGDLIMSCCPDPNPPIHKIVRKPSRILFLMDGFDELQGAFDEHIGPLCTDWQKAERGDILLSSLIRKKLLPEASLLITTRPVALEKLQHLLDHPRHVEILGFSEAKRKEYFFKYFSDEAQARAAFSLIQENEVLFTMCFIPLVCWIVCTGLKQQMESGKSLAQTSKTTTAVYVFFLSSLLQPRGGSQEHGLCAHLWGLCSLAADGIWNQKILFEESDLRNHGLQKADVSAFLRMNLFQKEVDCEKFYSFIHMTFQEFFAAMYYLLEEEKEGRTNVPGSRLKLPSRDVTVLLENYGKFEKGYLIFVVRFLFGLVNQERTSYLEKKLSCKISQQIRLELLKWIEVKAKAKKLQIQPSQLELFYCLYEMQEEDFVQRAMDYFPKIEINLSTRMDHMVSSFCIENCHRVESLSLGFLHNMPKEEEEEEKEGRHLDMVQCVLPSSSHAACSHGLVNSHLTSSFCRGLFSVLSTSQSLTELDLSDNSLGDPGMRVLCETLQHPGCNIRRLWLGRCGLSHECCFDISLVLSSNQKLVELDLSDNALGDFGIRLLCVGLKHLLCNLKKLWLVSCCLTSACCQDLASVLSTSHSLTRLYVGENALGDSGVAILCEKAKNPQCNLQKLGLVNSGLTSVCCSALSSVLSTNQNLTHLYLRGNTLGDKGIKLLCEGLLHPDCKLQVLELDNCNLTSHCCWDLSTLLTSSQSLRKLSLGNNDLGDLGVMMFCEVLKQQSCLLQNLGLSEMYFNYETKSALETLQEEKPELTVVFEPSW

Row | SMILES | IC50 [µM]
1 | O=C(N[C@@H]1CCC[C@H]2CC[C@@H]1N2c1nnn[nH]1)C1(c2ccc(Cl)cc2)CC1 (single isomer, unassigned) [9C*, N-(9-(1H-tetrazol-5-yl)-9-azabicyclo[4.2.1]nonan-2-yl)-1-(4-chlorophenyl)cyclopropane-1-carboxamide] | > 100
2 | C[C@H]1C[C@H]2CC[C@@H]([C@H](NC(=O)C3(c4ccc(C(F)(F)F)cc4)CC3)C1)N2c1nnn[nH]1 [104G*, N-((1S,2R,4R,6R)-4-methyl-9-(1H-tetrazol-5-yl)-9-azabicyclo[4.2.1]nonan-2-yl)-1-(4-(trifluoromethyl)phenyl)cyclopropane-1-carboxamide] | 50 to 100

same assay, conditions: displacement of 3H-MCC950; read-out: SPA IC50

Row | SMILES | IC50 [µM]
3 | C[C@H]1CCN(c2nnn[nH]2)C[C@@H](NC(=O)C2(c3cc(F)c(C(F)(F)F)cc3F)CC2)C1 (single isomer, unassigned) [7D*, 1-(2,5-difluoro-4-(trifluoromethyl)phenyl)-N-(5-methyl-1-(1H-tetrazol-5-yl)azepan-3-yl)cyclopropane-1-carboxamide] | 1 to 10
4 | C[C@H]1CCN(c2nnn[nH]2)C[C@@H](NC(=O)C2(c3ccc(OC(F)(F)F)cc3O)CC2)C1 (single isomer, unassigned) [62D*] | 1 to 10
5 | O=C(N[C@H]1CN(c2nnn[nH]2)CC[C@H]1F)C1(c2ccc(Cl)cc2)CC1 [Compound 50A, 1-(4-chlorophenyl)-N-[(3S,4R)-4-fluoro-1-(1H-tetrazol-5-yl)-3-piperidyl]cyclopropanecarboxamide] | 10 to 50
6 | C[C@H]1CC[C@H](NC(=O)C2(c3ccc(Cl)cc3)CC2)CN(c2nnn[nH]2)C1 (single isomer, unassigned) [36B*, 1-(4-chlorophenyl)-N-(6-methyl-1-(1H-tetrazol-5-yl)azepan-3-yl)cyclopropane-1-carboxamide] | 1 to 10
7 | Cc1ccc(C2(C(=O)N[C@H]3C[C@H](C)CCN(c4nnn[nH]4)C3)CC2)cc1 (single isomer, unassigned) [71B*] | 50 to 100
8 | C[C@@H]1CCN(c2nnn[nH]2)C[C@@H](NC(=O)C2(c3ccc(Cl)cc3)CC2)C1 (single isomer, unassigned) [12B*, 1-(4-chlorophenyl)-N-(5-methyl-1-(1H-tetrazol-5-yl)azepan-3-yl)cyclopropane-1-carboxamide] | 10 to 50
9 | C[C@H]1CCN(c2nnn[nH]2)C[C@H](NC(=O)C2(c3ccc(C4CCC4)cc3)CC2)C1 (single isomer, unassigned) [8C*, 1-(4-cyclobutylphenyl)-N-(5-methyl-1-(1H-tetrazol-5-yl)azepan-3-yl)cyclopropane-1-carboxamide] | 10 to 50
10 | Cc1ccc(C2(C(=O)N[C@H]3C[C@H](C)CCN(c4nnn[nH]4)C3)CC2)c(O)c1F (single isomer, unassigned) [74B*] | 1 to 10
11 | C[C@H]1CCN(c2nnn[nH]2)C[C@H](NC(=O)C2(c3ccc(C(F)(F)F)c(F)c3)CC2)C1 (single isomer, unassigned) [66C*] | > 100
12 | C[C@H]1CCN(c2nnn[nH]2)C[C@H](NC(=O)C2(c3ccc(C(F)F)cc3O)CC2)C1 (single isomer, unassigned) [30C*, 1-(4-(difluoromethyl)-2-hydroxyphenyl)-N-(5-methyl-1-(1H-tetrazol-5-yl)azepan-3-yl)cyclopropane-1-carboxamide] | > 100
13 | C[C@H]1C[C@H](NC(=O)C2(c3ccc(OC(F)F)cc3)CC2)[C@@H]2CC[C@H]1N2c1nnn[nH]1 (single isomer, unassigned) [35D*] | 10 to 50
14 | O=C(N[C@H]1CC[C@@H]2CC[C@H]1N2c1nnn[nH]1)C1(c2ccc(OC(F)(F)F)cc2O)CC1 [78B*, N-((1R,2S,5R)-8-(1H-tetrazol-5-yl)-8-azabicyclo[3.2.1]octan-2-yl)-1-(2-hydroxy-4-(trifluoromethoxy)phenyl)cyclopropane-1-carboxamide] | 1 to 10
15 | C[C@@H]1C[C@H](NC(=O)C2(c3ccc(C4CC4)c(F)c3O)CC2)[C@H]2CC[C@@H]1N2c1nnn[nH]1 [83B*, 1-(4-cyclopropy1-3-fluoro-2-hydroxyphenyl)-N-((1R,2S,4R,5S)-4-methyl-8-(1H-tetrazol-5-yl)-8-azabicyclo[3.2.1]octan-2-yl)cyclopropane-1-carboxamide] | 10 to 50
16 | Cc1ccc(C2(C(=O)N[C@H]3C[C@@H](C)CCN(c4nnn[nH]4)C3)CC2)c(O)c1F (single isomer, unassigned) [74D*] | 1 to 10
17 | O=C(N[C@H]1CC[C@@H]2CC[C@H]1N2c1nnn[nH]1)C1(c2ccc(Cl)cc2O)CC1 [75B*, N-((1R,2S,5R)-8-(1H-tetrazol-5-yl)-8-azabicyclo[3.2.1]octan-2-yl)-1-(4-chloro-2-hydroxyphenyl)cyclopropane-1-carboxamide] | 1 to 10
18 | Cc1ccc(C2(C(=O)N[C@H]3C[C@@H](C)[C@@H]4CC[C@H]3N4c3nnn[nH]3)CC2)cc1 [87B*, N-((1R,2S,4R,5S)-4-methy1-8-(1H-tetrazol-5-yl)-8-azabicyclo[3.2.1]octan-2-yl)-1-(p-tolyl)cyclopropane-1-carboxamide] | 10 to 50
19 | C[C@H]1CCN(c2nnn[nH]2)C[C@H](NC(=O)C2(c3ccc(Cl)cc3O)CC2)C1 (single isomer, unassigned) [60C*] | 1 to 10
20 | C[C@@H]1C[C@H](NC(=O)C2(c3ccc(OC(F)F)cc3F)CC2)[C@H]2CC[C@@H]1N2c1nnn[nH]1 (stereo in doubt) [101B*, 1-(4-(difluoromethoxy)-2-fluorophenyl)-N-(4-methyl-8-(1H-tetrazol-5-yl)-8-azabicyclo[3.2.1]octan-2-yl)cyclopropane-1-carboxamide] | > 100

Row | SMILES | IC50 [µM]
21 | C[C@H]1CCN(c2nnn[nH]2)C[C@H](NC(=O)C2(c3cc(F)c(C(F)(F)F)cc3F)CC2)C1 (single isomer, unassigned) [7C*, 1-(2,5-difluoro-4-(trifluoromethyl)phenyl)-N-(5-methyl-1-(1H-tetrazol-5-yl)azepan-3-yl)cyclopropane-1-carboxamide] | 50 to 100
22 | C[C@H]1CC[C@@H](NC(=O)C2(c3ccc(C4CC4)cc3O)CC2)CN(c2nnn[nH]2)C1 (single isomer, unassigned) [91A*] | < 1
23 | C[C@H]1C[C@H](NC(=O)C2(c3ccc(C(F)(F)F)cc3F)CC2)[C@@H]2CC[C@H]1N2c1nnn[nH]1 [84D*, 1-(2-fluoro-4-(trifluoromethyl)phenyl)-N-((1S,2S,4S,5R)-4-methy1-8-(1H-tetrazol-5-yl)-8-azabicyclo[3.2.1]octan-2-yl)cyclopropane-1-carboxamide] | > 100
24 | C[C@@H]1CCN(c2nnn[nH]2)C[C@@H](NC(=O)C2(c3ccc(Cl)c(F)c3F)CC2)C1 (single isomer, unassigned) [4B*, 1-(4-chloro-2,3-difluorophenyl)-N-(5-methyl-1-(1H-tetrazol-5-yl)azepan-3-yl)cyclopropane-1-carboxamide] | 10 to 50
25 | C[C@H]1CCN(c2nnn[nH]2)C[C@H](NC(=O)C2(c3ccc(Cl)cc3F)CC2)C1 (single isomer, unassigned) [56C*] | 50 to 100
26 | C[C@@H]1CCN(c2nnn[nH]2)C[C@@H](NC(=O)C2(c3cc(F)c(C(F)(F)F)cc3F)CC2)C1 (single isomer, unassigned) [7B*, 1-(2,5-difluoro-4-(trifluoromethyl)phenyl)-N-(5-methyl-1-(1H-tetrazol-5-yl)azepan-3-yl)cyclopropane-1-carboxamide] | 10 to 50
27 | C[C@H]1CC[C@@H](NC(=O)C2(c3ccc(Cl)cc3)CC2)CN(c2nnn[nH]2)C1 (single isomer, unassigned) [36A*, 1-(4-chlorophenyl)-N-(6-methyl-1-(1H-tetrazol-5-yl)azepan-3-yl)cyclopropane-1-carboxamide] | < 1
28 | C[C@H]1CCN(c2nnn[nH]2)C[C@@H](NC(=O)C2(c3ccc(Cl)cc3Cl)CC2)C1 (single isomer, unassigned) [55D*] | 50 to 100
29 | C[C@@H]1CCN(c2nnn[nH]2)C[C@H](NC(=O)C2(c3ccc(C4CCC4)cc3)CC2)C1 (single isomer, unassigned) [8A*, 1-(4-cyclobutylphenyl)-N-(5-methyl-1-(1H-tetrazol-5-yl)azepan-3-yl)cyclopropane-1-carboxamide] | 1 to 10
30 | C[C@H]1CCN(c2nnn[nH]2)C[C@H](NC(=O)C2(c3ccc(OC(F)(F)F)cc3O)CC2)C1 (single isomer, unassigned) [62C*] | 1 to 10
31 | O=C(N[C@H]1C[C@H](C(F)(F)F)[C@H]2CC[C@@H]1N2c1nnn[nH]1)C1(c2ccc(Cl)cc2)CC1 (single isomer, unassigned) [103D*] | 10 to 50
32 | C[C@H]1C[C@@H](NC(=O)C2(c3ccc(C(F)(F)F)cc3)CC2)[C@@H]2CC[C@H]1N2c1nnn[nH]1 [79C*, N-((1S,2R,4S,5R)-4-methy1-8-(1H-tetrazol-5-yl)-8-azabicyclo[3.2.1]octan-2-yl)-1-(4-(trifluoromethyl)phenyl)cyclopropane-1-carboxamide] | 10 to 50
33 | C[C@@H]1CCN(c2nnn[nH]2)C[C@@H](NC(=O)C2(c3ccc(Cl)c(F)c3)CC2)C1 (single isomer, unassigned) [65B*] | 10 to 50
34 | C[C@H]1CCN(c2nnn[nH]2)C[C@H](NC(=O)C2(c3ccc(Cl)nc3O)CC2)C1 (single isomer, unassigned) [100C*] | > 100
35 | C[C@@H]1CCN(c2nnn[nH]2)C[C@@H](NC(=O)C2(c3ccc(OC(F)(F)F)cc3)CC2)C1 (single isomer, unassigned) [57B*] | 1 to 10
36 | C[C@H]1C[C@@H](NC(=O)C2(c3ccc(OC(F)F)cc3O)CC2)[C@@H]2CC[C@H]1N2c1nnn[nH]1 [43C*, N-((1S,2R,4S,5R)-4-methy1-8-(1H-tetrazol-5-yl)-8-azabicyclo[3.2.1]octan-2-yl)-1-(4-(difluoromethoxy)-2-hydroxyphenyl)cyclopropane-1-carboxamide] | > 100
37 | C[C@H]1CCN(c2nnn[nH]2)C[C@H](NC(=O)C2(c3ccc(Cl)cc3)CC2)C1 (single isomer, unassigned) [12C*, 1-(4-chlorophenyl)-N-(5-methyl-1-(1H-tetrazol-5-yl)azepan-3-yl)cyclopropane-1-carboxamide] | > 100
38 | O=C(N[C@H]1CC[C@@H]2CC[C@H]1N2c1nnn[nH]1)C1(c2ccc(OC(F)F)cc2O)CC1 [77B*, N-((1R,2S,5R)-8-(1H-tetrazol-5-yl)-8-azabicyclo[3.2.1]octan-2-yl)-1-(4-(difluoromethoxy)-2-hydroxyphenyl)cyclopropane-1-carboxamide] | 10 to 50
